Results as given in ChEMBL document CHEMBL4138123, “Design, synthesis and biological evaluation of novel pyrazolochalcones as potential modulators of PI3K/Akt/mTOR pathway and inducers of apoptosis in breast cancer cells” (Eur J Med Chem, 2017).

What was measured:
Assay type in all cases: functional
MOLT-4 [1] = assay: Cytotoxicity against human MOLT4 cells assessed as cell growth at 10 uM after 48 hrs by sulforhodamine B assay relative to control; conditions: MOLT-4, 48 h, read-out: Activity
SR = assay: Cytotoxicity against human SR cells assessed as cell growth at 10 uM after 48 hrs by sulforhodamine B assay relative to control; conditions: read-out: Activity
TK-10 [2] = assay: Cytotoxicity against human TK10 cells assessed as cell growth at 0.1 uM after 48 hrs by sulforhodamine B assay relative to control; conditions: TK-10, 48 h, read-out: Activity
A549 = assay: Cytotoxicity against human A549/ATCC cells assessed as cell growth at 1 uM after 48 hrs by sulforhodamine B assay relative to control; conditions: A549, 48 h, read-out: Activity
MOLT-4 [3] = assay: Cytotoxicity against human MOLT4 cells assessed as cell growth at 0.01 uM after 48 hrs by sulforhodamine B assay relative to control; conditions: MOLT-4, 48 h, read-out: Activity
PC-3 = assay: Cytotoxicity against human PC3 cells assessed as cell growth at 0.01 uM after 48 hrs by sulforhodamine B assay relative to control; conditions: PC-3, 48 h, read-out: Activity
Hs-578T [4] = assay: Cytotoxicity against human Hs 578T cells assessed as cell growth at 0.01 uM after 48 hrs by sulforhodamine B assay relative to control; conditions: read-out: Activity
786-0 [5] = assay: Cytotoxicity against human 786-0 cells assessed as cell growth at 100 uM after 48 hrs by sulforhodamine B assay relative to control; conditions: 786-0, 48 h, read-out: Activity
OVCAR-4 [6] = assay: Cytotoxicity against human OVCAR4 cells assessed as cell growth at 1 uM after 48 hrs by sulforhodamine B assay relative to control; conditions: OVCAR-4, 48 h, read-out: Activity
SK-MEL-28 [7] = assay: Cytotoxicity against human SK-MEL-28 cells assessed as growth inhibition after 48 hrs by sulforhodamine B assay; conditions: SK-MEL-28, 48 h
TK-10 [8] = assay: Cytotoxicity against human TK10 cells assessed as cell growth at 100 uM after 48 hrs by sulforhodamine B assay relative to control; conditions: TK-10, 48 h, read-out: Activity
786-0 [9] = assay: Cytotoxicity against human 786-0 cells assessed as cell growth at 0.01 uM after 48 hrs by sulforhodamine B assay relative to control; conditions: 786-0, 48 h, read-out: Activity
OVCAR-8 = assay: Cytotoxicity against human OVCAR8 cells assessed as cell growth at 10 uM after 48 hrs by sulforhodamine B assay relative to control; conditions: OVCAR-8, 48 h, read-out: Activity
IGROV-1 = assay: Cytotoxicity against human IGROV1 cells assessed as growth inhibition after 48 hrs by sulforhodamine B assay; conditions: IGROV-1, 48 h
HCC 2998 = assay: Cytotoxicity against human HCC2998 cells assessed as cell growth at 10 uM after 48 hrs by sulforhodamine B assay relative to control; conditions: HCC 2998, 48 h, read-out: Activity
SK-MEL-5 [10] = assay: Cytotoxicity against human SK-MEL-5 cells assessed as cell growth at 0.01 uM after 48 hrs by sulforhodamine B assay relative to control; conditions: SK-MEL-5, 48 h, read-out: Activity
T47D = assay: Cytotoxicity against human T47D cells assessed as cell growth at 100 uM after 48 hrs by sulforhodamine B assay relative to control; conditions: read-out: Activity
M14 [11] = assay: Cytotoxicity against human M14 cells assessed as cell growth at 0.01 uM after 48 hrs by sulforhodamine B assay relative to control; conditions: M14, 48 h, read-out: Activity
UACC-62 = assay: Cytotoxicity against human UACC62 cells assessed as cell growth at 0.01 uM after 48 hrs by sulforhodamine B assay relative to control; conditions: UACC-62, 48 h, read-out: Activity
OVCAR-5 [12] = assay: Cytotoxicity against human OVCAR5 cells assessed as cell growth at 10 uM after 48 hrs by sulforhodamine B assay relative to control; conditions: OVCAR-5, 48 h, read-out: Activity
HT-29 = assay: Cytotoxicity against human HT-29 cells assessed as cell growth at 0.1 uM after 48 hrs by sulforhodamine B assay relative to control; conditions: HT-29, 48 h, read-out: Activity
COLO 205 [13] = assay: Cytotoxicity against human COLO205 cells assessed as cell growth at 100 uM after 48 hrs by sulforhodamine B assay relative to control; conditions: COLO 205, 48 h, read-out: Activity
OVCAR-3 [14] = assay: Cytotoxicity against human OVCAR3 cells assessed as cell growth at 100 uM after 48 hrs by sulforhodamine B assay relative to control; conditions: OVCAR-3, 48 h, read-out: Activity
ACHN [15] = assay: Cytotoxicity against human ACHN cells assessed as growth inhibition after 48 hrs by sulforhodamine B assay
COLO 205 [16] = assay: Cytotoxicity against human COLO205 cells assessed as cell growth at 0.01 uM after 48 hrs by sulforhodamine B assay relative to control; conditions: COLO 205, 48 h, read-out: Activity
OVCAR-5 [17] = assay: Cytotoxicity against human OVCAR5 cells assessed as growth inhibition after 48 hrs by sulforhodamine B assay; conditions: OVCAR-5, 48 h
KM12 = assay: Cytotoxicity against human KM12 cells assessed as cell growth at 0.1 uM after 48 hrs by sulforhodamine B assay relative to control; conditions: KM12, 48 h, read-out: Activity
MCF7 = assay: Cytotoxicity against human MCF7 cells assessed as cell growth at 0.1 uM after 48 hrs by sulforhodamine B assay relative to control; conditions: MCF7, 48 h, read-out: Activity
SK-MEL-28 [18] = assay: Cytotoxicity against human SK-MEL-28 cells assessed as cell growth at 0.1 uM after 48 hrs by sulforhodamine B assay relative to control; conditions: SK-MEL-28, 48 h, read-out: Activity
Hs-578T [19] = assay: Cytotoxicity against human Hs 578T cells assessed as cell growth at 10 uM after 48 hrs by sulforhodamine B assay relative to control; conditions: read-out: Activity
SF-539 = assay: Cytotoxicity against human SF539 cells assessed as cell growth at 0.01 uM after 48 hrs by sulforhodamine B assay relative to control; conditions: SF-539, 48 h, read-out: Activity
ACHN [20] = assay: Cytotoxicity against human ACHN cells assessed as cell growth at 1 uM after 48 hrs by sulforhodamine B assay relative to control; conditions: read-out: Activity
SK-MEL-5 [21] = assay: Cytotoxicity against human SK-MEL-5 cells assessed as cell growth at 0.1 uM after 48 hrs by sulforhodamine B assay relative to control; conditions: SK-MEL-5, 48 h, read-out: Activity
OVCAR-4 [22] = assay: Cytotoxicity against human OVCAR4 cells assessed as cell growth at 0.1 uM after 48 hrs by sulforhodamine B assay relative to control; conditions: OVCAR-4, 48 h, read-out: Activity
DU-145 = assay: Cytotoxicity against human DU145 cells assessed as growth inhibition after 48 hrs by sulforhodamine B assay; conditions: DU-145, 48 h
M14 [23] = assay: Cytotoxicity against human M14 cells assessed as cell growth at 0.1 uM after 48 hrs by sulforhodamine B assay relative to control; conditions: M14, 48 h, read-out: Activity
OVCAR-3 [24] = assay: Cytotoxicity against human OVCAR3 cells assessed as cell growth at 10 uM after 48 hrs by sulforhodamine B assay relative to control; conditions: OVCAR-3, 48 h, read-out: Activity

COc1ccc(-c2cc(/C=C/C(=O)c3ccc(N)cc3)[nH]n2)cc1OC
growth at 10 µM (MOLT-4 [1]): 6% | growth at 10 µM (SR): -13% | growth at 0.1 µM (TK-10 [2]): 100% | growth at 1 µM (A549): 89% | growth at 0.01 µM (MOLT-4 [3]): 108% | growth at 0.01 µM (PC-3): 95% | growth at 0.01 µM (Hs-578T [4]): 98% | growth at 100 µM (786-0 [5]): -97% | growth at 1 µM (OVCAR-4 [6]): 69% | GI50 (SK-MEL-28 [7]): 2.14 µM | LC50 (SK-MEL-28 [7]): 21.1 µM | TGI (SK-MEL-28 [7]): 5.66 µM | growth at 100 µM (TK-10 [8]): -98% | growth at 0.01 µM (786-0 [9]): 91% | growth at 10 µM (OVCAR-8): 2% | GI50 (IGROV-1): 4.56 µM | LC50 (IGROV-1): 73 µM | TGI (IGROV-1): 19 µM | growth at 10 µM (HCC 2998): -75% | growth at 0.01 µM (SK-MEL-5 [10]): 99% | growth at 100 µM (T47D): -40% | growth at 0.01 µM (M14 [11]): 95% | growth at 0.01 µM (UACC-62): 99% | growth at 10 µM (OVCAR-5 [12]): -10% | growth at 0.1 µM (HT-29): 107% | growth at 100 µM (COLO 205 [13]): -78% | growth at 100 µM (OVCAR-3 [14]): -99% | GI50 (ACHN [15]): 1.67 µM | LC50 (ACHN [15]): 6.48 µM | TGI (ACHN [15]): 3.29 µM | growth at 0.01 µM (COLO 205 [16]): 92% | GI50 (OVCAR-5 [17]): 2.62 µM | LC50 (OVCAR-5 [17]): 36.3 µM | TGI (OVCAR-5 [17]): 7.94 µM | growth at 0.1 µM (KM12): 104% | growth at 0.1 µM (MCF7): 89% | growth at 0.1 µM (SK-MEL-28 [18]): 93% | growth at 10 µM (Hs-578T [19]): 40% | growth at 0.01 µM (SF-539): 93% | growth at 1 µM (ACHN [20]): 88% | growth at 0.1 µM (SK-MEL-5 [21]): 95% | growth at 0.1 µM (OVCAR-4 [22]): 90% | GI50 (DU-145): 3.74 µM | TGI (DU-145): 13.5 µM | CC50 (DU-145; read-out: LC50 (the source's name)): 36.8 µM | growth at 0.1 µM (M14 [23]): 97% | growth at 10 µM (OVCAR-3 [24]): -56%
